The test concerns CD2F1 mice, L1210 leukemia ip, survival T/C. As to the kind of experiment: NCI In Vivo Anticancer Drug Screen. Data for tumor model L1210 Leukemia (intraperitoneal) in CD2F1 (CDF1) mice. The following applies: endpoint: mean survival time, higher = longer survival. The essentials: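 Implant tumor; dose compound or vehicle; measure endpoint in both groups; report treated divided by control.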

The text below walks through data of PubChem BioAssay AID256 (DTP/NCI, 2004).

Where “and” joins values, the source holds several entries; their conditions need not be identical. Identical values can stand only once. Toxic doses and inconclusive results are not listed.

Take `Nc1nncs1`: the T/C is 94 % of control (dose: 1.0 mg/kg/injection, schedule: Q01DX005 (ip), vehicle: water); 96 % of control (dose: 2.0 mg/kg/injection, schedule: Q01DX005 (ip), vehicle: water); 96 % of control (dose: 4.0 mg/kg/injection, schedule: Q01DX005 (ip), vehicle: water); 98 % of control (dose: 8.0 mg/kg/injection, schedule: Q01DX005 (ip), vehicle: water); 123 % of control (dose: 8.0 mg/kg/injection, schedule: Q03HX008 (ip), vehicle: alkali diluted with saline); 116 % of control (dose: 8.0 mg/kg/injection, schedule: Q03HX016 (ip), vehicle: alkali diluted with saline). Moreover, the T/C (dose: 8.0 mg/kg/injection, schedule: Q03HX024 (ip), vehicle: alkali diluted with saline) is 152 % of control; the T/C (dose: 8.0 mg/kg/injection, schedule: Q03HX024 (ip), vehicle: saline) was 153 % of control; the T/C (dose: 16.0 mg/kg/injection, schedule: Q01DX005 (ip), vehicle: water) is 108 % of control; the T/C (dose: 16.0 mg/kg/injection, schedule: Q01DX005 (iv), vehicle: alkali diluted with saline) is 110 % of control; the T/C (dose: 16.0 mg/kg/injection, schedule: Q01DX009 (oral), vehicle: other) is 108 % of control; the T/C (dose: 16.0 mg/kg/injection, schedule: Q03HX024 (ip), vehicle: alkali diluted with saline) was 194 % of control. The T/C was 103 % of control (dose: 23.4 mg/kg/injection, schedule: Q04DX003 (ip), vehicle: water); 107 % of control (dose: 32.0 mg/kg/injection, schedule: Q01DX001 (iv), vehicle: alkali diluted with saline); 123 % of control (dose: 32.0 mg/kg/injection, schedule: Q01DX009 (ip), vehicle: other); 120 % of control (dose: 32.0 mg/kg/injection, schedule: Q01DX009 (ip), vehicle: saline with Tween-80); 107 % of control (dose: 32.0 mg/kg/injection, schedule: Q01DX009 (oral), vehicle: other); 120 % of control (dose: 32.0 mg/kg/injection, schedule: Q03HX008 (ip), vehicle: saline). The T/C (dose: 32.0 mg/kg/injection, schedule: Q03HX024 (ip), vehicle: saline) is 104 % of control; the T/C (dose: 32.0 mg/kg/injection, schedule: Q04DX003 (ip), vehicle: alkali diluted with saline) was 111 % of control; the T/C (dose: 32.0 mg/kg/injection, schedule: Q04DX003 (ip), vehicle: other) is 106 % of control; the T/C (dose: 39.0 mg/kg/injection, schedule: Q04DX003 (ip), vehicle: water) was 117 % of control and 105 % of control; the T/C (dose: 50.0 mg/kg/injection, schedule: Q04DX003 (ip), vehicle: water) is 106 % of control; the T/C (dose: 62.5 mg/kg/injection, schedule: Q04DX003 (ip), vehicle: water) was 103 % of control and 107 % of control. For the same compound, the T/C is 112 % of control (dose: 64.0 mg/kg/injection, schedule: Q01DX001 (ip), vehicle: alkali diluted with saline); 109 % of control (dose: 64.0 mg/kg/injection, schedule: Q01DX001 (ip), vehicle: other); 112 % of control (dose: 64.0 mg/kg/injection, schedule: Q01DX001 (iv), vehicle: alkali diluted with saline); 111 % of control (dose: 64.0 mg/kg/injection, schedule: Q01DX001 (oral), vehicle: alkali diluted with saline); 94 % of control (dose: 64.0 mg/kg/injection, schedule: Q01DX001 (oral), vehicle: other); 115 % of control (dose: 64.0 mg/kg/injection, schedule: Q01DX001 (sc), vehicle: alkali diluted with saline). In addition, the T/C reads like this: (dose: 64.0 mg/kg/injection, schedule: Q01DX009 (ip), vehicle: other) 103 % of control; (dose: 64.0 mg/kg/injection, schedule: Q01DX009 (ip), vehicle: saline with Tween-80) 104 % of control and 107 % of control; (dose: 64.0 mg/kg/injection, schedule: Q01DX009 (ip), vehicle: saline) 109 % of control; (dose: 64.0 mg/kg/injection, schedule: Q01DX009 (oral), vehicle: other) 86 % of control; (dose: 64.0 mg/kg/injection, schedule: Q03HX024 (ip), vehicle: alkali diluted with saline) 97 % of control; (dose: 64.0 mg/kg/injection, schedule: Q04DX003 (ip), vehicle: other) 123 % of control. For the same compound, the T/C (dose: 64.0 mg/kg/injection, schedule: Q08DX002 (ip), vehicle: alkali diluted with saline) is 114 % of control; the T/C (dose: 64.0 mg/kg/injection, schedule: Q08DX002 (ip), vehicle: other) was 105 % of control; the T/C (dose: 65.0 mg/kg/injection, schedule: Q04DX003 (ip), vehicle: water) was 123 % of control; the T/C (dose: 100.0 mg/kg/injection, schedule: Q04DX003 (ip), vehicle: water) was 119 % of control; the T/C (dose: 125.0 mg/kg/injection, schedule: Q04DX003 (ip), vehicle: water) is 119 % of control; the T/C (dose: 128.0 mg/kg/injection, schedule: Q01DX001 (ip), vehicle: other) was 119 % of control. The T/C (dose: 128.0 mg/kg/injection, schedule: Q01DX001 (iv), vehicle: alkali diluted with saline) is 119 % of control; the T/C (dose: 128.0 mg/kg/injection, schedule: Q01DX001 (oral), vehicle: other) is 104 % of control; the T/C (dose: 128.0 mg/kg/injection, schedule: Q01DX001 (sc), vehicle: alkali diluted with saline) is 120 % of control; the T/C (dose: 128.0 mg/kg/injection, schedule: Q01DX009 (sc), vehicle: alkali diluted with saline) was 96 % of control; the T/C (dose: 128.0 mg/kg/injection, schedule: Q08DX002 (ip), vehicle: alkali diluted with saline) is 124 % of control; the T/C (dose: 128.0 mg/kg/injection, schedule: Q08DX002 (ip), vehicle: other) is 116 % of control. In addition, the T/C was 159 % of control (dose: 180.0 mg/kg/injection, schedule: Q04DX003 (ip), vehicle: water); 124 % of control (dose: 200.0 mg/kg/injection, schedule: Q04DX003 (ip), vehicle: water); 156 % of control (dose: 250.0 mg/kg/injection, schedule: Q04DX003 (ip), vehicle: water); 118 % of control (dose: 256.0 mg/kg/injection, schedule: Q01DX001 (ip), vehicle: other); 108 % of control (dose: 256.0 mg/kg/injection, schedule: Q01DX001 (oral), vehicle: other); 150 % of control (dose: 256.0 mg/kg/injection, schedule: Q01DX005 (iv), vehicle: alkali diluted with saline). For the same compound, the T/C was 87 % of control (dose: 256.0 mg/kg/injection, schedule: Q01DX009 (ip), vehicle: alkali diluted with saline); 163 % of control (dose: 256.0 mg/kg/injection, schedule: Q04DX003 (ip), vehicle: alkali diluted with saline); 157 % of control (dose: 256.0 mg/kg/injection, schedule: Q04DX003 (ip), vehicle: other); 161 % of control and 176 % of control (dose: 300.0 mg/kg/injection, schedule: Q04DX003 (ip), vehicle: water); 111 % of control (dose: 512.0 mg/kg/injection, schedule: Q01DX001 (oral), vehicle: other); 182 % of control (dose: 512.0 mg/kg/injection, schedule: Q04DX003 (ip), vehicle: alkali diluted with saline). Moreover, the T/C (dose: 512.0 mg/kg/injection, schedule: Q04DX003 (ip), vehicle: other) was 168 % of control; the T/C (dose: 512.0 mg/kg/injection, schedule: Q08DX002 (ip), vehicle: alkali diluted with saline) was 151 % of control; the T/C (dose: 833.0 mg/kg/injection, schedule: Q04DX003 (ip), vehicle: water) is 182 % of control; the T/C (dose: 1024.0 mg/kg/injection, schedule: Q01DX001 (ip), vehicle: other) was 122 % of control; the T/C (dose: 1024.0 mg/kg/injection, schedule: Q01DX001 (oral), vehicle: alkali diluted with saline) was 117 % of control; the T/C (dose: 1024.0 mg/kg/injection, schedule: Q01DX001 (oral), vehicle: other) is 109 % of control. Also, the T/C (dose: 1024.0 mg/kg/injection, schedule: Q08DX002 (ip), vehicle: alkali diluted with saline) is 160 % of control.
With `N#CCN(CC#N)c1ccccc1`, the T/C by setting is: (dose: 1.56 mg/kg/injection, schedule: Q01DX001 (ip), vehicle: other) 95 % of control; (dose: 3.13 mg/kg/injection, schedule: Q01DX001 (ip), vehicle: other) 95 % of control; (dose: 6.25 mg/kg/injection, schedule: Q01DX001 (ip), vehicle: other) 98 % of control and 100 % of control.
Regarding `CCN(C(=O)c1ccccc1Cl)C(c1ccco1)P(=O)(c1ccccc1)c1ccccc1` (centres undefined), the T/C by setting is: (dose: 100.0 mg/kg/injection, schedule: Q01DX009 (ip), vehicle: saline with Tween-80) 90 % of control; (dose: 200.0 mg/kg/injection, schedule: Q01DX009 (ip), vehicle: saline with Tween-80) 107 % of control.
On to `Nc1ncnc(N)c1N=O`, for which the T/C (dose: 100.0 mg/kg/injection, schedule: Q04DX003 (ip), vehicle: saline with Tween-80) was 96 % of control and the T/C (dose: 200.0 mg/kg/injection, schedule: Q04DX003 (ip), vehicle: saline with Tween-80) is 89 % of control.
